From publication PMC3272803, “Infection by CXCR4-Tropic Human Immunodeficiency Virus Type 1 Is Inhibited by the Cationic Cell-Penetrating Peptide Derived from HIV-1 Tat” (International Journal of Peptides, 2012)
Converted amounts (≈) assume the structure as drawn. Where two headings read alike, the source gives them in different places. No end group written: not given here.

Experiments:
[1] = exposure durations as long as 48 h, not conjugated to payload; cited from earlier work
[2] = system: HIV-1 strain IIIB; assay type: cell-based, human immunodeficiency virus type 1; conditions: for EC50: 2 h exposure
Description: Peptide effectiveness was determined in an HIV-1 infection inhibition assay using P4-R5 MAGI indicator cells. […] The cells were then infected with HIV-1 strain IIIB (Advanced Biotechnologies, Inc., Columbia, MD; 10^7.8 TCID50/mL) at multiplicities of infection (MOI) of 0.6, 0.05, or 0.03 in the presence or absence of peptide or dextran sulfate (DS) (Sigma, St. Louis, MO). Following a 2 h incubation at 37°C, the cells were washed with PBS, provided with 200 μL of new media, and incubated for an additional 46 h. Levels of infection were measured using the Galacto-Star-β-Galactosidase Reporter Gene Assay System for Mammalian Cells (Applied Biosystems, Carlsbad, CA) as described by the manufacturer. Chemiluminescence was measured using a Glomax Luminometer plate reader (Promega, Madison, WI).

[3] = system: P4-R5 MAGI cells; conditions: 2 h exposure at concentrations below 1 mg/mL; MTT immediately after exposure or 24 h or 48 h after exposure; two independent assays in quadruplicate
Description: P4-R5 MAGI cells were plated at a concentration of 1.5 × 10^4 cells/well in a flat-bottom 96-well plate. The cells were then exposed to the indicated half log concentrations of peptide and incubated at 37°C for 2 h. Following exposure, the cells were washed with PBS and then assayed for cell viability immediately or at 24 h or 48 h after exposure. Viability was measured using a 3-(4,5-dimethylthiazol-2-yl)-2,5-diphenyltetrazolium bromide (MTT) assay as previously described.
Mean values and standard deviations were calculated from two independent assays in which each concentration was examined in quadruplicate.

[4] = system: HIV-1; conditions: preliminary studies, data not shown

N=C(N)NCCC[C@H](NC(=O)[C@H](CCCNC(=N)N)NC(=O)[C@H](CCCNC(=N)N)NC(=O)[C@H](CCC(N)=O)NC(=O)[C@H](CCCNC(=N)N)NC(=O)[C@H](CCCNC(=N)N)NC(=O)[C@H](CCCCN)NC(=O)[C@H](CCCCN)NC(=O)[C@H](CCCNC(=N)N)NC(=O)CN)C(=O)O [Tat peptide]
concentration up to which peptide alone had no effect on cell viability [1]: up to 100 μM
EC50 ([2]; HIV-1 IIIB, 0.05 MOI (8.8 x 10^3 infectious virions/mL), P4-R5 MAGI cells): 140 µg/mL
EC50 ([2]; HIV-1 IIIB, 0.6 MOI, P4-R5 MAGI cells, same value as 0.094 mg/mL in molar units): 50 µM
effect on P4-R5 MAGI cell viability [3]: no effect

RRKKRRRRRR [TPvar3]
EC50 (concentration that resulted in 50% reduction in infection relative to mock-treated, HIV-1-infected cells) ([2]; strain IIIB, 2 h): 25 µg/mL

dextran sulfate [reference compound]
EC50 (concentration that resulted in 50% reduction in infection relative to mock-treated, HIV-1-infected cells) ([2]; HIV-1 IIIB, 0.6 MOI, P4-R5 MAGI cells, 2 h exposure with virus, wash, further 46 h, beta-galactosidase chemiluminescence, two independent assays in quadruplicate): 0.7 µg/mL

nona-arginine
anti-HIV-1 activity [4]: anti-HIV-1 activity

N=C(N)NCCC[C@H](NC(=O)[C@H](CCCNC(=N)N)NC(=O)[C@H](CCCNC(=N)N)NC(=O)[C@H](CCCNC(=N)N)NC(=O)[C@H](CCCNC(=N)N)NC(=O)[C@H](CCCNC(=N)N)NC(=O)[C@H](CCCNC(=N)N)NC(=O)[C@H](CCCNC(=N)N)NC(=O)[C@H](CCCNC(=N)N)NC(=O)[C@@H](N)CCCNC(=N)N)C(=O)O [R-10, decaarginine]
EC50 (concentration that resulted in 50% reduction in infection relative to mock-treated, HIV-1-infected cells) ([2]; strain IIIB, 2 h): 14 µg/mL (≈ 8.86 µM)
